From US20210300940A1 (Merck Patent GmbH, priority 2018, published 2021)

Legend:
TLR8 = target: T1, TLR8 (Homo sapiens, UniProt Q9NR97); assay: HEK/293 TLR8 Cell Assay; assay type: cell-based; settings: HEK cells, R848 agonist 30 uM final concentration, Steady-Glo readout; read-out: TLR8 potency
T1 construct: expressed in transfected cells; host or cells: HEK/293 reporter cells (NF-kB luciferase)
T1 sequence (Q9NR97 27-1041): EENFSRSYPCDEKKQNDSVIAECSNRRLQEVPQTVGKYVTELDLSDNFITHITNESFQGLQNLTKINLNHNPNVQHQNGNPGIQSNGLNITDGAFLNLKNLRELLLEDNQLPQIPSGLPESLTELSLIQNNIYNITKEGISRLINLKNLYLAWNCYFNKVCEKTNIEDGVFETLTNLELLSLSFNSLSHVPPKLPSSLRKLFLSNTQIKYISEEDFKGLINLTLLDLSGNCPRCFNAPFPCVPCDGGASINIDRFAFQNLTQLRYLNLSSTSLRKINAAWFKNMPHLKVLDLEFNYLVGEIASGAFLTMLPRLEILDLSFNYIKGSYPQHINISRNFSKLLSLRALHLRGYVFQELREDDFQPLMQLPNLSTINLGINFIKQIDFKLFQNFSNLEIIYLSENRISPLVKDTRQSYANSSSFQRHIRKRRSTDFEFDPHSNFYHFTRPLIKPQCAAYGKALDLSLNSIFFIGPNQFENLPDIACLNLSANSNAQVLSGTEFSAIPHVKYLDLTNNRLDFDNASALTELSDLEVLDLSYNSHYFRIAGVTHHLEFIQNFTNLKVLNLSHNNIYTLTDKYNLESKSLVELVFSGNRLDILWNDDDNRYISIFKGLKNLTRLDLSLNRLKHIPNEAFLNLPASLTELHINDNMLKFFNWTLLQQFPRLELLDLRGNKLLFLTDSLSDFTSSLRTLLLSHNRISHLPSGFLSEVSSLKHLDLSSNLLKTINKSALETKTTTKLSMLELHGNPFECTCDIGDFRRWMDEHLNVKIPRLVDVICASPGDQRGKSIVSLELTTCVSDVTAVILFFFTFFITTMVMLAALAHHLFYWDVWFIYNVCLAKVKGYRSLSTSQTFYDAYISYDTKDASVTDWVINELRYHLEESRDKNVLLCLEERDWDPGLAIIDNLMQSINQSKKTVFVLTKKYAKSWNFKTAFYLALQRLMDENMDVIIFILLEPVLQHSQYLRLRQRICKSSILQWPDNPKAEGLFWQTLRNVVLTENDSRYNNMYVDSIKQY

TLR7 = target: T2, TLR7 (Homo sapiens, UniProt Q9NYK1); assay: HEK/293 TLR7 Cell Assay; assay type: cell-based; settings: TLR7/NFKb HEK cells, R848 agonist 10 uM final concentration, Steady-Glo readout; read-out: TLR7 potency
T2 construct: expressed in transfected cells; host or cells: HEK/293 cells carrying TLR7 and an NF-kB luciferase reporter
T2 sequence (Q9NYK1 27-1049): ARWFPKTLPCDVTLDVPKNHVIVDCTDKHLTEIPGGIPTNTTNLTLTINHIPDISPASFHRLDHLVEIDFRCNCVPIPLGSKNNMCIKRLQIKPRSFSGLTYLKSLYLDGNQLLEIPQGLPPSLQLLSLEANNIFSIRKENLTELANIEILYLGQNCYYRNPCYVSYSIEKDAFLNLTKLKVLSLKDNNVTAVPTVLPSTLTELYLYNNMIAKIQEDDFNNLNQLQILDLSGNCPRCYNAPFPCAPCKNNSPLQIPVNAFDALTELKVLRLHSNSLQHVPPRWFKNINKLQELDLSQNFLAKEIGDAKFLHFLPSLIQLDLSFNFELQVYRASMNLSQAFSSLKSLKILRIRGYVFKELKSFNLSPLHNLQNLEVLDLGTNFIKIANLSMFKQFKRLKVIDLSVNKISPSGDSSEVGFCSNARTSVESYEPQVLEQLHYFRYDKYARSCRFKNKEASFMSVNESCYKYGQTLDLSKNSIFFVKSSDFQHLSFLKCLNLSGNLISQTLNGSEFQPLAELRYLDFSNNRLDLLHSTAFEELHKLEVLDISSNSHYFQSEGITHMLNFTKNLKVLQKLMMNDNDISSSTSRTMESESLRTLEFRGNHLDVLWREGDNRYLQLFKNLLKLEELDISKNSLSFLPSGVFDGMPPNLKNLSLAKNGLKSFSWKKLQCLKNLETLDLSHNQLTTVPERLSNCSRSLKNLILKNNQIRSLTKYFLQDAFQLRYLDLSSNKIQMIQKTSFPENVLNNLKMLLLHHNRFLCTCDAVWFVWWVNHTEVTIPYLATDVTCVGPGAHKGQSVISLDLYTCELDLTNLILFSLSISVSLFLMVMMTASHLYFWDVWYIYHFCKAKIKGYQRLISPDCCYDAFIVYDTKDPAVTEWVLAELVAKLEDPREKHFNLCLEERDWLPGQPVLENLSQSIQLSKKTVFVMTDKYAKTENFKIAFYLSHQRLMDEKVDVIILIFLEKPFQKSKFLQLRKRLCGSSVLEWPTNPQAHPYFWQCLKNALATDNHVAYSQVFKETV
Summary of the method: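 TLR7/NF-κB reporter HEK293 cells, 5000/well, cultured 24 h, then preincubated 30 min with compound before R848 agonist (10 uM final). After 5 h stimulation, Steady-Glo luciferase luminescence read.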

| SMILES | IC50 (TLR8) [nM] | IC50 (TLR7) [nM] |
| --- | --- | --- |
| CN1CCC(O)(CC(=O)N[C@@H]2C[C@H](C(F)(F)F)CN(c3ccc(C(F)(F)F)c4nccnc34)C2)CC1 [Example 63, 2-(4-hydroxy-1-methylpiperidin-4-yl)-N-[(3R,5S)-5-(trifluoromethyl)-1-[8-(trifluoromethyl)quinoxalin-5-yl]piperidin-3-yl]acetamide] | < 75 | < 75 |
| C[C@@H]1CN(c2ccc(C#N)c3nccnc23)C[C@H](C(=O)NCC2CCCN2C)O1 (stereo partly drawn) [Example 245, (2R,6R)-4-(8-Cyano-quinoxalin-5-yl)-6-methyl-morpholine-2-carboxylic acid (1-methyl-pyrrolidin-2-ylmethyl)-amide] | < 75 | < 75 |
| C[C@H]1C[C@@H](NCCC(N)=O)CN(c2ccc(C(F)(F)F)c3nccnc23)C1 [Example 22, 3-[(3R,5S)-5-Methyl-1-(8-trifluoromethyl-quinoxalin-5-yl)-piperidin-3-ylamino]-propionamide] | < 75 | < 75 |
| N#Cc1ccc(N2C[C@H](N)C[C@H](C(F)(F)F)C2)c2ccc(=O)[nH]c12 [Example 388, 5-((3R,5S)-3-Amino-5-trifluoromethyl-piperidin-1-yl)-2-oxo-1,2-dihydro-quinoline-8-carbonitrile] | > 150 | > 150 |
| C[C@H]1C[C@@H](NC(=O)[C@@H](N)C(C)(C)O)CN(c2ccc(C#N)c3nccnc23)C1 [Example 173, (S)-2-Amino-N-[(3R,5S)-1-(8-cyano-quinoxalin-5-yl)-5-methyl-piperidin-3-yl]-3-hydroxy-3-methyl-butyramide] | < 75 | < 75 |
| C[C@@H]1CN(c2ccc(C(F)(F)F)c3ncccc23)C[C@H](CN2CCC(N3CCCC3)CC2)O1 [Example 328, 5-[(2R,6S)-2-Methyl-6-(4-pyrrolidin-1-yl-piperidin-1-ylmethyl)-morpholin-4-yl]-8-trifluoromethyl-quinoline] | 75 to 150 | < 75 |
| C[C@H]1C[C@@H](n2ccnc2)CN(c2ccc(C#N)c3ncccc23)C1 [Example 158, 5-[(3R,5S)-3-(1H-imidazol-1-yl)-5-methylpiperidin-1-yl]quinoline-8-carbonitrile] | < 75 | > 150 |
| CONC(=O)CCN[C@@H]1C[C@H](C)CN(c2ccc(C(F)(F)F)c3ncccc23)C1 [Example 55, N-Methoxy-3-[(3R,5S)-5-methyl-1-(8-trifluoromethyl-quinolin-5-yl)-piperidin-3-ylamino]-propionamide] | < 75 | < 75 |
| Cc1ccc(N2C[C@H](NC(=O)CC3CCN(C(C)C)CC3)C[C@H](C(F)(F)F)C2)c2cccnc12 [Example 109, 2-(1-Isopropyl-piperidin-4-yl)-N-[(3R,5S)-1-(8-methyl-quinolin-5-yl)-5-trifluoromethyl-piperidin-3-yl]-acetamide] | 75 to 150 | > 150 |
| C[C@@H]1CN(c2ccc(C#N)c3nccnc23)C[C@H](C(=O)NC2CN(CC(F)(F)F)C2)O1 [Example 254, (2R,6R)-4-(8-Cyano-quinoxalin-5-yl)-6-methyl-morpholine-2-carboxylic acid [1-(2,2,2-trifluoro-ethyl)-azetidin-3-yl]-amide] | > 150 | < 75 |
| C[C@@H]1CN(c2cnc(C#N)c3ncccc23)C[C@H](CNC(=O)[C@]2(F)CCN(C)C2)O1 (single isomer, unassigned) [Example 335] | < 75 | 75 to 150 |
| C[C@@H]1CN(c2cnc(C#N)c3ncccc23)C[C@H](C(=O)NC[C@H]2CCCN2C)O1 [Example 276, (2R,6R)-4-(8-Cyano-[1,7]naphthyridin-5-yl)-6-methyl-morpholine-2-carboxylic acid ((R)-1-methyl-pyrrolidin-2-ylmethyl)-amide] | 75 to 150 | < 75 |
| CN1CCC(F)(CC(=O)N[C@@H]2C[C@H](C(F)(F)F)CN(c3ccc(C#N)c4nccnc34)C2)CC1 [Example 77] | < 75 | < 75 |
| C[C@@H]1CN(c2cnc(C#N)c3ncccc23)C[C@H](CN2CCNCC2)O1 [Example 366, 5-((2R,6S)-2-Methyl-6-piperazin-1-ylmethyl-morpholin-4-yl)-[1,7]naphthyridine-8-carbonitrile] | < 75 | < 75 |
| C[C@H]1C[C@@H](NC(=O)[C@@H]2CCNC2)CN(c2ccc(C(F)(F)F)c3ncccc23)C1 [Example 204, (3R)—N-[(3R,5S)-5-methyl-1-[8-(trifluoromethyl)quinolin-5-yl]piperidin-3-yl]pyrrolidine-3-carboxamide] | < 75 | < 75 |
| C[C@@H]1CN(c2ccc(C#N)c3nccnc23)C[C@H](CN2CCC(C(C)(C)O)C2)O1 (stereo partly drawn) [Example 222, 8-{(2S,6R)-2-[3-(1-Hydroxy-1-methyl-ethyl)-pyrrolidin-1-ylmethyl]-6-methyl-morpholin-4-yl}-quinoxaline-5-carbonitrile] | 75 to 150 | < 75 |
| C[C@H]1C[C@@H](NC(=O)[C@H]2CCCN2)CN(c2ccc(C(F)(F)F)c3ncccc23)C1 [Example 177, (R)-Pyrrolidine-2-carboxylic acid [(3R,5S)-5-methyl-1-(8-trifluoromethyl-quinolin-5-yl)-piperidin-3-yl]-amide] | < 75 | 75 to 150 |
| C[C@@H]1CN(c2cnc(C#N)c3ncccc23)C[C@H](CN2CCN(C)CC2)O1 [Example 368, 5-[(2R,6S)-2-Methyl-6-(4-methyl-piperazin-1-ylmethyl)-morpholin-4-yl]-naphthyridine-8-carbonitrile] | < 75 | < 75 |
| C[C@H]1C[C@@H](NC(=O)CCn2ccnc2)CN(c2ccc(C#N)c3nccnc23)C1 [Example 193, N-[(3R,5S)-1-(8-Cyano-quinoxalin-5-yl)-5-methyl-piperidin-3-yl]-3-imidazol-1-yl-propionamide] | < 75 | < 75 |
| Cc1ccc(N2C[C@@H](C)C[C@@H](NC(=O)[C@@H]3CCCN3)C2)c2cccnc12 [Example 122, (2S)—N-[(3R,5S)-5-methyl-1-(8-methylquinolin-5-yl)piperidin-3-yl]pyrrolidine-2-carboxamide] | < 75 | > 150 |
| C[C@H]1C[C@@H](NCC2CCC(=O)N2)CN(c2ccc(C(F)(F)F)c3ncccc23)C1 (stereo partly drawn) [Example 48, 5-{[(3R,5S)-5-Methyl-1-(8-trifluoromethyl-quinolin-5-yl)-piperidin-3-ylamino]-methyl}-pyrrolidin-2-one] | < 75 | < 75 |
